Patent publication US5863773A, “Antifungal corynecandin” (Abbott Laboratories, priority 1997, dated 1999)
≈ marks a conversion by molar mass, not a printed value. Numbered stars: 1 amine (or outer) side, 2 acyl side, 3 side chain; on linkers, the order of the positions; unused ones are H or OH. Bridge positions count the residues as written; N and C are the ends. Square brackets hold non-standard residues; d marks the D form. Peptide text beside a SMILES is read from it. * marks the point of attachment. Orn(4R-OH,5R-OH) = O=C([C@H](C[C@@H](O)[C@@H](O)N[*:3])N[*:1])[*:2]; hTyr(3S-OH,4S-OH) = N[C@H](C(=O)O)[C@H](O)[C@@H](O)c1ccc(O)cc1; Pro(3S-OH,4S-Me) = C[C@H]1CN[C@H](C(=O)O)[C@H]1O; Benzoyl(4-octyloxy) = CCCCCCCCOc1ccc(C(=O)*)cc1; Hyp = O=C(O)[C@@H]1C[C@@H](O)CN1

Columns and labels:
[1] = test system: fungal organisms; assay: Microtiter broth dilution assay of antifungal activity (MIC) in the presence and absence of 0.8M sorbitol; assay type: cell-based; settings: for MIC: 48 h, read-out: Broth Dilution Assay MIC at 2 day growth, w/o sorbitol; for Broth Dilution Assay MIC at 2 day growth, with sorbitol: with 0.8M sorbitol; for Broth Dilution Assay MIC at 2 day growth, with sorbitol / Broth Dilution Assay MIC at 2 day growth, w/o sorbitol: final concentration of cells 2 × 10^5 organisms/ml; for Broth Dilution Assay MIC at 2 day growth, w/o sorbitol: without sorbitol
Procedure: Minimal inhibitory concentrations (MICs) of corynecandin related compounds in the microtiter broth dilution in the presence and absence of 0.8M sorbitol assay were determined by a broth dilution assay described by Frost, D., Brandt, K., Cugier, D., and Goldman, R. in J. Antibiotics 48: 306-310 (1995), which is incorporated herein by reference.
^a Assay conducted as described in Frost et al., ibid, except final
concentration of cells was 2 × 10^5 organisms/ml.

[2] = biological target: T1, (1,3)-β-Glucan Synthase (Candida albicans, UniProt A0A1D8PCT0); assay: In vitro inhibition of (1,3)-β-glucan synthase activity; assay type: biochemical
T1 construct: integral plasma membrane protein
T1 sequence (A0A1D8PCT0 1-1897): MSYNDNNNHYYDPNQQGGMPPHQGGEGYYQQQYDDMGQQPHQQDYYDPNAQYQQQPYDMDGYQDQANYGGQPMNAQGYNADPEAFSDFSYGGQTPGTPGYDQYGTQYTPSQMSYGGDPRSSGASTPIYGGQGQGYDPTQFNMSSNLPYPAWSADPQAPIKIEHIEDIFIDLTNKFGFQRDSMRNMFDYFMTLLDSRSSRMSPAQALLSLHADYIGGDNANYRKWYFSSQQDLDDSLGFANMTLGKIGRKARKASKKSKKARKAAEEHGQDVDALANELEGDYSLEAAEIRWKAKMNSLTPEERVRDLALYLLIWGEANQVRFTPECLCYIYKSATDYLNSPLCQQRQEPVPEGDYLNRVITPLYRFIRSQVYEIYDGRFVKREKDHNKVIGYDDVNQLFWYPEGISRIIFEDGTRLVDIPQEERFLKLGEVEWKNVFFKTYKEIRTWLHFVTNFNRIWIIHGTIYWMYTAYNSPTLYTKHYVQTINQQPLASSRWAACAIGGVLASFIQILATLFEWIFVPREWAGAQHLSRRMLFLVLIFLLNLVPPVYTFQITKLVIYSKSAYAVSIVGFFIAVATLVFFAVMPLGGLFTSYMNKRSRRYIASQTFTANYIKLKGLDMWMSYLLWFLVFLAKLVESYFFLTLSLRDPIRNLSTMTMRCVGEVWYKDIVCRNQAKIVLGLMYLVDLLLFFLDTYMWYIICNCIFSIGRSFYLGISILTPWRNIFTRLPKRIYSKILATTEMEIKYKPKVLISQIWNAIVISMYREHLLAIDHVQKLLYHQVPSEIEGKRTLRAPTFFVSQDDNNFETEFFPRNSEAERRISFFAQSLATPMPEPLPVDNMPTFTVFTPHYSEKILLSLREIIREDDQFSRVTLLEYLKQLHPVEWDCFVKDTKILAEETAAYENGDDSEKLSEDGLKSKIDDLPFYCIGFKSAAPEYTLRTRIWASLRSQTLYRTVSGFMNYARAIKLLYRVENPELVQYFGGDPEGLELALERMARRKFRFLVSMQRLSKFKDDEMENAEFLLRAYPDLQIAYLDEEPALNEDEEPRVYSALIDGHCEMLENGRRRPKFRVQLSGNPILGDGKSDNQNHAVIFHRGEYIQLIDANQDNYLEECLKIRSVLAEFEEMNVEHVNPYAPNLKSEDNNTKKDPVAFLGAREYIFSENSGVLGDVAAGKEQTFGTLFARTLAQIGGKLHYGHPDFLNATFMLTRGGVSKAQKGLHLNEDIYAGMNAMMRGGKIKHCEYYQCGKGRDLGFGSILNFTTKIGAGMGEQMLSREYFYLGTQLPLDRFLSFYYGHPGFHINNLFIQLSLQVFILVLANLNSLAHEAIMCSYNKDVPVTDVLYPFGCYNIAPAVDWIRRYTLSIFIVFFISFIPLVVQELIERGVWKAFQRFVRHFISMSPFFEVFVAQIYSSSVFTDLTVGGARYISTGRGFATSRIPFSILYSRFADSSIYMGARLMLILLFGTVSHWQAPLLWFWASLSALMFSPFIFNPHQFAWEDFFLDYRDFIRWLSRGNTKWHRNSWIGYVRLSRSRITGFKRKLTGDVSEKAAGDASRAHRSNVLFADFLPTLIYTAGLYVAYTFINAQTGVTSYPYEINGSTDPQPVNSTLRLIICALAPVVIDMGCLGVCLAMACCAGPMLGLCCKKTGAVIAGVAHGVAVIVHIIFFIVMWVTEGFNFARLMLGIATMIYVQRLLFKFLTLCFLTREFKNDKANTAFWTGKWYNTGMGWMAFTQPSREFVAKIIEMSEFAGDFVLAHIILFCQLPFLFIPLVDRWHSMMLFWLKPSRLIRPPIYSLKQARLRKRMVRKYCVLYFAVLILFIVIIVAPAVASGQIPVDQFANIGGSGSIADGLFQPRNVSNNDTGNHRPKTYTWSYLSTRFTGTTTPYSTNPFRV
T1 sequence (O42825 1-195 partner): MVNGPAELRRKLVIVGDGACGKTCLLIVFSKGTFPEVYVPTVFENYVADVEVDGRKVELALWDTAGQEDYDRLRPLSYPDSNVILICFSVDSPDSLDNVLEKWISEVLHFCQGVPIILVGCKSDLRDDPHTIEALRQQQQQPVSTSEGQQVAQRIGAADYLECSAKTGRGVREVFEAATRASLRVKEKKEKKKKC
From the text: The fungal cell wall serves as a protective barrier and is essential for viability in a hypotonic environment. (1,3)-β-Glucan is a component of the Candida albicans cell wall, and the enzyme that biosynthesizes this polymer, glucan synthase, is not present in higher eukaryotes. (Glucan synthase is an integral plasma membrane protein that catalyzes polymerization of uridine diphosphate-glucose (UDP-Glc) into β-glucan.) Accordingly, glucan synthase represents an ideal target for the development of antifungal agents.
The assay was conducted as described by Frost, D., Brandt, K. Capobioanco, and Goldman, R., Microbiology 140: 2239-2246 (1994) which is incorporated herein by reference.

Molecule	MIC [1] [µg/mL]	Rescue of cell growth by sorbitol ([1]; cells treated with compound, sorbitol present)	Broth Dilution Assay MIC at 2 day growth, with sorbitol [1] [mg/mL]	Broth Dilution Assay MIC at 2 day growth, w/o sorbitol [1] [mg/mL]	In Vitro Inhibition of (1,3)-β-Glucan Synthase Activity IC50 [2] [µg/mL]
C[C@@H]1[C@H](O)[C@@H](C)/C=C/C=C/C=C/C=C/C=C/C=C/C=C/[C@H](O[C@@H]2O[C@H](C)[C@@H](O)[C@H](N)[C@@H]2O)C[C@@H]2O[C@](O)(C[C@@H](O)C[C@@H](O)[C@H](O)CC[C@@H](O)C[C@@H](O)CC(=O)O[C@H]1C)C[C@H](O)[C@H]2C(=O)O [Amphotericin B]	480 (≈ 519 µM)				
CCCCCCCCOc1ccc(C(=O)N[C@H]2C[C@@H](O)[C@@H](O)NC(=O)[C@@H]3[C@@H](O)[C@@H](C)CN3C(=O)[C@H]([C@@H](C)O)NC(=O)[C@H]([C@H](O)[C@@H](O)c3ccc(O)cc3)NC(=O)[C@@H]3C[C@@H](O)CN3C(=O)[C@H]([C@@H](C)O)NC2=O)cc1 [Cilofungin] ({Benzoyl(4-octyloxy)}-[Orn(4R-OH,5R-OH)]T[Hyp][hTyr(3S-OH,4S-OH)]T[Pro(3S-OH,4S-Me)]; lactam 1-C)	980 (≈ 951 µM)				
CCCCC/C=C\C=C\C(=O)OC[C@H]1O[C@@H](O[C@H]2[C@H](OC(=O)/C(C)=C/C=C/CC(O)C(C)CC)[C@@H](O)[C@H](c3c(O)cc(O)cc3CO)O[C@@H]2CO)[C@H](O)[C@@H](O)[C@H]1O (stereo partly shown) [Corynecandin]	980 (≈ 1210 µM)	Sorbitol could rescue the growth of cells			
CCC(O)/C=C/C=C/C=C/C(=O)OC[C@H]1O[C@@H](O[C@H]2[C@H](OC(=O)/C=C/C=C/CC(O)/C(C)=C/C=C/CCC(C)CC)[C@@H](O)[C@@]3(OCc4cc(O)cc(O)c43)O[C@@H]2CO)[C@H](O)[C@@H](O)[C@H]1O (stereo partly shown) [Papulacandin B]			> 250	1.96	1.9
Fusacandin			> 250	1.96	25.0
